Experimental data reported in PMC6478794, “Identification of a Novel Bcl-2 Inhibitor by Ligand-Based Screening and Investigation of Its Anti-cancer Effect on Human Breast Cancer Cells” (Frontiers in Pharmacology, 2019).
pIC50, pKd: −log10 of the molar value. Read-outs that look alike come from different tables or passages of the source. One block for each compound: values may come before it.

Columns and labels:
[1] = biological target: recombinant human Bcl-2 protein (Homo sapiens, UniProt P10415); assay: Surface plasmon resonance (SPR) binding assay
Method: The interaction between virtual screening candidates and Bcl-2 was determined using a PlexArray HT biological molecular interaction analyzer (PLEXERA LLC, USA). Candidates were covalently immobilized to the surface of sensor chip following the standard coupling reaction guide. Candidates were dissolved in DMSO to a final concentration of 10 μM. To analyze binding signal, a set of concentration gradient (700, 350, 175, 87.5 nM) of Bcl-2 protein were, respectively, diluted with PBST (1x PBS + 0.1% Tween-20, pH 7.4). PBST was also used as running buffer and samples were injected into the flow cell chamber of the sensor chip one by another with rate of 2 μL/s for 300 s. After the injection stage, running buffer was flowed over the chip surface for 300 s at 2 μL/s to allow the bound analytes to dissociate from the Bcl-2. The response unit (RU) of sample dots on the chip surface was recorded by the interaction analyzer during the whole process. In this way, dissociation curves obtained. HBS-P buffer was used as vehicle controls. Lastly, the changes in RU and the binding curve were measured by the PlexeraDE software (PLEXERA LLC, USA).

[2] = test system: MDA-MB-231 cells; assay: Cell viability CCK-8 assay; type: cell-based; settings: Homo sapiens, 48 h
Method: (§1) The human breast cancer cell line MDA-MB-231, T47D, and BT549, were purchased from Cell Bank of Chinese Academy of Sciences. MDA-MB-231 were cultured in L-15 medium with 10% FBS at 37°C with 100% air, and T47D were cultured in DMEM/High glucose medium with 10% FBS at 37°C with 5% CO2. BT549 was cultured in 1,640 medium with 10% FBS at 37°C with 5% CO2.
(§2) Cell viability was measured by Cell Counting Kit-8 (CCK-8) assay following the manufacturer's protocol. Cells were plated at 5 × 10^3 cells per well in 96-well plates. After compound M1 treatment, cells were incubated with 10 μL CCK-8 for 2 h at 37°C with 5% CO2. The results were determined at 450 nm wave length.

[3] = test system: hematologic malignancies; settings: preclinical researches; cited from earlier work
[4] = parameters: method as in Schoenwaelder et al., 2011; settings: in vivo; ref Schoenwaelder et al., 2011; cited from earlier work
[5] = test system: Bcl-2; settings: cited from earlier work
[6] = test system: Bcl-xl; settings: cited from earlier work
[7] = test system: T47D cells; assay: Annexin V-FITC/PI apoptosis assay (flow cytometry); type: cell-based, human; settings: 48 h
Method: Cell apoptosis was measured by Annexin V-FITC/PI double-staining Kit following the manufacturer's protocol. After treatment with 8 or 16 μM compound M1 for 48 h, cells were washed twice with cold phosphate buffer saline and then, suspended in 100 μL binding buffer (BD CAT. NO.556547) with 5 μL Annexin-V (BD CAT. NO.556420) and 5 μL PI (BD CAT. NO.556463). And cells were gently vortexed and incubated at room temperature for 15 min in darkness for flow cytometric (Becton Dickison) analysis.

[8] = test system: MDA-MB-231 cells; assay: EdU incorporation assay; type: cell-based, human; settings: 4 or 8 μM, 48 h
Method: Cell Proliferation was measured by Cell Light EdU DNA Cell Proliferation Kit. Cells were plated in 96-well culture plates. Cells were treated with 4 or 8 μM compound M1 for 48 h. At the end of treatment, cells were incubated with EdU reagent for 2 h at 37°C. Four percent of paraformaldehyde was used to fix the cells for 15 min. Then, cells were incubated with 0.5% Triton X-100 for 30 min. Washed cells with PBS three times. After that, cells were dyed with reaction cocktail for 30 min, and stained cell nucleus with 5 μg/mL of Hoechst 33,342 for 30 min. Images were observed by fluorescent microscope.

[9] = test system: MDA-MB-231 cells; assay: Clonogenic assay; type: cell-based, human; settings: 4 or 8 μM, 48 h, then 10 days
Method: The cells were plated at 200 cells per well in six-well culture plates followed by compound M1 for 48 h. At the end of treatment, the cells were cultured with fresh medium, and were grown at 37°C for 10 days. After colony formation, the cells were washed with PBS and immobilized by 4% formaldehyde at room temperature for 30 min. Finally, the cells were dyed with 0.5% crystal violet.

[10] = test system: Bcl-2; assay: Western blot of Bcl-2 expression; type: cell-based, human; settings: MDA-MB-231, T47D, and BT549 cells; different doses 48 h or 8 μM over time
Method: (§3) After compound M1 treatment, cells were lysed with RIPA buffer supplemented with protease inhibitor (Selleck) on ice for 30 min following by centrifugation at 14,000 × g for 15 min. Protein concentrations of the lysates were determined by BCA assay kit. Equivalent amounts of cellular protein were separated by SDS-PAGE and transferred to polyvinylidene difluoride membranes. And then, the membranes were blocked with 5% skim milk in TBST. The membranes were incubated with primary antibodies and peroxidase-conjugated secondary antibodies. Finally, the membranes were visualized with an enhanced chemiluminescent detection kit.

[11] = test system: MDA-MB-231 cells; assay: Mitochondrial membrane potential (JC-1 staining); type: cell-based, human; settings: 2 or 4 μM, 48 h
Method: The MMP was measured using JC-1 assay kit according to the manufacturer's protocol. Cells were treated with 2 or 4 μM compound M1 for 48 h. The cells were cultured with JC-1 staining reagent (1x) at 37°C for 20 min. Cells were washed twice by JC-1 staining buffer. Next, the fluorescence intensity of JC-1 aggregate or monomer was observed by fluorescent microscopic. The ratio of aggregates to monomers was estimated as a symbol of mitochondrial membrane potential.

[12] = test system: MDA-MB-231 cells; assay: Detection of reactive oxygen species (DCFH-DA); type: cell-based, human; settings: 2 or 4 μM, 48 h
Method: Cells were treated with 2 or 4 μM compound M1 for 48 h. After that, cells were rinsed twice with PBS and incubated with DCFH-DA (10 μmol/L) at 37°C in a darkroom. The fluorescence intensity of DCF was detected at an emission wavelength of 525 nm and excitation wavelength of 488 nm.

[13] = test system: T47D cells; assay: Western blot of cytochrome c in mitochondrial and cytosol fraction; type: cell-based, human; settings: 4 or 8 μM, 48 h
Method: as §3

[14] = test system: T47D and BT549 cells; assay: Western blot of cleaved caspase-3 and cleaved PARP; type: cell-based, human; settings: 48 h
Method: as §3

[15] = test system: MDA-MB-231, T47D, and BT549 cells; assay: CCK-8 cell viability, dose and time course in three breast cancer cell lines; type: cell-based, human; settings: series of doses 72 h; time course at 5, 2, or 3 μM
Method: as §1, §2

[16] = parameters: method as in Seymour et al., 2013; Vandenberg and Cory, 2013; settings: ref Seymour et al., 2013, Vandenberg and Cory, cited from earlier work
[17] = test system: Mcl-1; settings: cited from earlier work
[18] = cited from earlier work
[19] = compound immobilized on chip, Bcl-2 protein 700 nM, read-out: KD, dissociation equilibrium constant

Sequence of recombinant human Bcl-2 protein (P10415 whole entry): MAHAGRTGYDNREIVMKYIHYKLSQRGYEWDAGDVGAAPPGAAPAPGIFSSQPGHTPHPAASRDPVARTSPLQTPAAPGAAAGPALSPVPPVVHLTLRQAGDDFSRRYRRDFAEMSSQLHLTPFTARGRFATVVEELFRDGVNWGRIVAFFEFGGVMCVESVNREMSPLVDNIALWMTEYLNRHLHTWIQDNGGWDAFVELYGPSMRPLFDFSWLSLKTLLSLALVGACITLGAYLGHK

pKd [1, 19]: 6.07 | pIC50 [2]: < 4.30
Compound: Cc1cc(C(=O)C2=C(O)C(=O)N(CCCN3CCOCC3)C2c2cccc(Oc3ccccc3)c2)ccc1OCc1ccccc1 (stereo not drawn) [M3]

Compound: CC1(C)CCC(c2ccc(Cl)cc2)=C(CN2CCN(c3ccc(C(=O)NS(=O)(=O)c4ccc(N[C@H](CCN5CCOCC5)CSc5ccccc5)c(S(=O)(=O)C(F)(F)F)c4)cc3)CC2)C1 [ABT-263]
cytotoxicity against hematologic malignancies [3]: significant cytotoxicity | thrombocytopenia [4]: can cause thrombocytopenia

pKd [1, 19]: 6.24 | pIC50 [2]: < 4.30
Compound: Cc1ccc(S(=O)(=O)N(Cc2ccc(Cl)cc2)c2ccccc2C(=O)Nc2ccc(S(=O)(=O)Nc3ccc(F)cc3)cc2)cc1 [M5]

Compound: CN(C)CC[C@H](CSc1ccccc1)Nc1ccc(S(=O)(=O)NC(=O)c2ccc(N3CCN(Cc4ccccc4-c4ccc(Cl)cc4)CC3)cc2)cc1[N+](=O)[O-] [ABT-737]
affinity with Bcl-2 [5]: high affinity | affinity with Bcl-xl [6]: high affinity | cytotoxicity against hematologic malignancies [3]: significant cytotoxicity | thrombocytopenia [4]: can cause thrombocytopenia

Compound: COc1cc(N2C(C(C)=O)=NN(c3ccc(C)cc3)C2c2ccccc2OCc2ccccc2F)ccc1NC(=O)C(C)C (stereo not drawn) [M1]
koff [1]: 0.00142 s⁻¹ | kon [1]: 4480 M⁻¹ s⁻¹ | pKd ([1]; M1, text and Figure 5B, read-out: KD): 6.43 | pKd [1, 19]: 6.50 | pIC50 [2]: 5.30 | apoptosis (Annexin V staining) [7]: dose-dependent increase in apoptosis | EdU-positive cells [8]: reduced number of EdU-positive cells | clonogenicity [9]: reduced in a dose-dependent manner | protein expression of Bcl-2 [10]: decreased the protein expression of Bcl-2 | mitochondrial membrane potential (MMP) [11]: caused the disturbance of MMP | level of generated ROS [12]: elevation in the level of generated ROS | release of cytochrome c from mitochondria to cytosol [13]: increased the release of cytochrome c | cleaved PARP and cleaved caspase-3 [14]: increase | cell proliferation (cell viability) [15]: inhibits cell proliferation in concentration- and time- dependent

pKd [1, 19]: 7.16 | pIC50 [2]: < 4.30
Compound: COc1ccc(/C=c2/sc3n(c2=O)C(c2ccc(Cl)cc2)C(C(=O)Nc2ccccc2)=C(C)N=3)cc1COc1ccc(F)cc1F (stereo not drawn) [M6]

pKd [1, 19]: 4.97 | pIC50 [2]: < 4.30
Compound: CCOc1cccc(C2N(c3ccccc3)N=C(C(C)=O)N2c2ccc(N3CCOCC3)c(Cl)c2)c1OCc1ccc(Cl)cc1Cl (stereo not drawn) [M8]

Compound: CC1(C)CCC(CN2CCN(c3ccc(C(=O)NS(=O)(=O)c4ccc(NCC5CCOCC5)c([N+](=O)[O-])c4)c(Oc4cnc5[nH]ccc5c4)c3)CC2)=C(c2ccc(Cl)cc2)C1 [ABT-199]
tumor lysis syndrome ([16]; patients with chronic lymphocytic leukemia): tumor lysis syndrome was caused | activity in patients with lymphoma ([16]; phase I trials): greater activity than ABT-263 | effects on platelet counts ([16]; phase I trials): no significant effects on platelet counts

Compound: AT-101
affinity with Bcl-2 [5]: submicromolar concentrations | affinity with Bcl-xl [6]: submicromolar concentrations | affinity for Mcl-1 [17]: submicromolar concentrations | clinical activity ([18]; early phase II trials, monotherapy or combination, lung and prostate cancers, ref Ready et al., 2011): failed to exert significant clinical activity | tolerability in patients ([18]; ref Liu et al., 2009): well-tolerated

pKd [1, 19]: 5.32 | pIC50 [2]: < 4.30
Compound: COc1cc(-c2cc(-c3ccccc3)nc(SCC(=O)Nc3cc(Cl)ccc3C)c2C#N)ccc1OCc1ccccc1 [M4]

pKd [1, 19]: 6.39 | pIC50 [2]: < 4.30
Compound: Cc1ccc(S(=O)(=O)N(Cc2ccc(Cl)cc2)c2ccccc2C(=O)Nc2ccccc2C(=O)NC(C)c2ccccc2)cc1 (stereo not drawn) [M2]

pKd [1, 19]: 5.80 | pIC50 [2]: < 4.30
Compound: CCN(CC)c1ccc(N2C(C(C)=O)=NN(c3ccc(Cl)cc3)C2c2ccccc2OCc2ccc(Cl)cc2Cl)cc1 (stereo not drawn) [M7]
